Results reported in patent US7595053B2 (priority 2001, dated 2009).
Read-outs that look alike come from different tables or passages of the source.

Assays:
[1] = system: MAb Hs-3; type: binding
[2] = system: MAb Hs-2; type: binding
[3] = system: Mab Hs-1; type: binding
[4] = system: Japanese encephalitis virus; type: in vivo, mice (C3H, BALB/c, SWISS); details: observed 21 days
[5] = system: Japanese encephalitis virus; type: in vivo, mice (BALB/C, C3H, SWISS/Albino); details: 50 ug peptide per mouse per dose sc with Freund's adjuvant every 14 days; FIGS. 3A-3C
[6] = system: Japanese encephalitis virus; type: cell-based, Porcine stable kidney cells; sera from mice
[7] = system: Japanese encephalitis virus; type: in vivo, BALB/c mice; details: 40 ug conjugate per mouse per dose with Freund's adjuvant
[8] = other strains of mice (BALB/c or SWISS)

AIVVEYSS [269-AIVVEYSS-276]
Reactivity with monoclonal antibody Hs-3, OD values at 492 nm [1]: 0.115 | Reactivity with monoclonal antibody Hs-2, OD values at 492 nm [2]: 0.041 | Reaction with Mab Hs-1 (in words) [3]: react with Mab Hs-1 | Reactivity with monoclonal antibody Hs-1, OD values at 492 nm [3]: 0.696

ANDKPTLD [35-ANDKPTLD-42]
Reactivity with monoclonal antibody Hs-3, OD values at 492 nm [1]: 0.052 | Reactivity with monoclonal antibody Hs-2, OD values at 492 nm [2]: 0.016 | Reactivity with monoclonal antibody Hs-1, OD values at 492 nm [3]: 0.022

DKPTLDVR [37-DKPTLDVR-44]
Reactivity with monoclonal antibody Hs-3, OD values at 492 nm [1]: 0.035 | Reactivity with monoclonal antibody Hs-2, OD values at 492 nm [2]: 0.016 | Reactivity with monoclonal antibody Hs-1, OD values at 492 nm [3]: 0.029

DVRMINIE [42-DVRMINIE-49]
Reactivity with monoclonal antibody Hs-3, OD values at 492 nm [1]: 0.043 | Reactivity with monoclonal antibody Hs-2, OD values at 492 nm [2]: 0.008 | Reactivity with monoclonal antibody Hs-1, OD values at 492 nm [3]: 0.155

EYSSSVKL [273-EYSSSVKL-280]
Reactivity with monoclonal antibody Hs-3, OD values at 492 nm [1]: 0.110 | Reactivity with monoclonal antibody Hs-2, OD values at 492 nm [2]: 0.045 | Reactivity with monoclonal antibody Hs-1, OD values at 492 nm [3]: 0.538

H-SENHGNYSAQVGASQGSIGGVFNSIGKAVHQVFG-OH [chimeric peptide]
Resistance to lethal virus challenge (survival) ([4]; C3H mice, challenge virus dose 2.3 log LD 50 i.p. followed by 1% starch i.c., FIG. 5): able to resist the virus challenge | Resistance to lethal virus challenge (survival) [4, 8]: nor were they able to resist the virus challenge | Anti Japanese encephalitis virus response by ELISA (in words) [5]: capable of eliciting an immune response against JE virus | Neutralization of Japanese encephalitis virus by anti-peptide sera [6, 8]: not able to neutralize the virus | Neutralization of Japanese encephalitis virus by anti-peptide sera ([6]; sera from C3H mice, diluted 1:50, plaque reduction, FIG. 4): capable of neutralizing Japanese encephalitis virus

IMANDKPT [33-IMANDKPT-40]
Reactivity with monoclonal antibody Hs-3, OD values at 492 nm [1]: 0.017 | Reactivity with monoclonal antibody Hs-2, OD values at 492 nm [2]: 0.016 | Reactivity with monoclonal antibody Hs-1, OD values at 492 nm [3]: 0.110

IVVEYSSS [270-IVVEYSSS-277]
Reactivity with monoclonal antibody Hs-3, OD values at 492 nm [1]: 0.112 | Reactivity with monoclonal antibody Hs-2, OD values at 492 nm [2]: 0.030 | Reactivity with monoclonal antibody Hs-1, OD values at 492 nm [3]: 0.637

LDVRMINI [41-LDVRMINI-48]
Reactivity with monoclonal antibody Hs-3, OD values at 492 nm [1]: 0.082 | Reactivity with monoclonal antibody Hs-2, OD values at 492 nm [2]: 0.007 | Reactivity with monoclonal antibody Hs-1, OD values at 492 nm [3]: 0.277

MINIEASQ [45-MINIEASQ-52]
Reactivity with monoclonal antibody Hs-3, OD values at 492 nm [1]: 0.080 | Reactivity with monoclonal antibody Hs-2, OD values at 492 nm [2]: 0.001 | Reactivity with monoclonal antibody Hs-1, OD values at 492 nm [3]: 0.177

NHGNYSAQVGASQ [151-NHGNYSAQVGASQ-163]
Reactivity with monoclonal antibody Hs-3, OD values at 492 nm [1]: 0.258 | Reactivity with monoclonal antibody Hs-2, OD values at 492 nm [2]: 0.294 | Reactivity with monoclonal antibody Hs-1, OD values at 492 nm [3]: 0.074

NIEASQLA [47-NIEASQLA-54]
Reactivity with monoclonal antibody Hs-3, OD values at 492 nm [1]: 0.081 | Reactivity with monoclonal antibody Hs-2, OD values at 492 nm [2]: 0.003 | Reactivity with monoclonal antibody Hs-1, OD values at 492 nm [3]: 0.07

Ovalbumin
Reactivity of anti peptide sera with Japanese encephalitis virus by ELISA, mean optical density ([7]; sera collected on post inoculation day 7): 0.127 ± 0.022 | Reactivity of anti peptide sera with Japanese encephalitis virus by ELISA, mean optical density ([7]; sera collected on post inoculation day 14): 0.116 ± 0.072 | Reactivity of anti peptide sera with Japanese encephalitis virus by ELISA, mean optical density ([7]; sera collected on post inoculation day 21): 0.153 ± 0.003

PTLDVRMI [39-PTLDVRMI-46]
Reactivity with monoclonal antibody Hs-3, OD values at 492 nm [1]: 0.025 | Reactivity with monoclonal antibody Hs-2, OD values at 492 nm [2]: 0.006 | Reaction with Mab Hs-1 (in words) [3]: react with Mab Hs-1 | Reactivity with monoclonal antibody Hs-1, OD values at 492 nm [3]: 0.313

SENHGNYSAQVGASQ [149-SENHGNYSAQVGASQ-163]
Reactivity with monoclonal antibody Hs-3, OD values at 492 nm [1]: 0.377 | Reactivity with monoclonal antibody Hs-2, OD values at 492 nm [2]: 0.415 | Anti Japanese encephalitis virus response by ELISA (in words) [5]: capable of eliciting an immune response against JE virus | Reactivity with monoclonal antibody Hs-1, OD values at 492 nm [3]: 0.093

SSSVKLTS [275-SSSVKLTS-282]
Reactivity with monoclonal antibody Hs-3, OD values at 492 nm [1]: 0.136 | Reactivity with monoclonal antibody Hs-2, OD values at 492 nm [2]: 0.053 | Reactivity with monoclonal antibody Hs-1, OD values at 492 nm [3]: 0.765

SSVKLTSG [276-SSVKLTSG-283]
Reactivity with monoclonal antibody Hs-3, OD values at 492 nm [1]: 0.123 | Reactivity with monoclonal antibody Hs-2, OD values at 492 nm [2]: 0.061 | Reactivity with monoclonal antibody Hs-1, OD values at 492 nm [3]: 0.447

TLDVRMIN [40-TLDVRMIN-47]
Reactivity with monoclonal antibody Hs-3, OD values at 492 nm [1]: 0.064 | Reactivity with monoclonal antibody Hs-2, OD values at 492 nm [2]: 0.008 | Reactivity with monoclonal antibody Hs-1, OD values at 492 nm [3]: 0.329

VEYSSSVK [272-VEYSSSVK-279]
Reactivity with monoclonal antibody Hs-3, OD values at 492 nm [1]: 0.106 | Reactivity with monoclonal antibody Hs-2, OD values at 492 nm [2]: 0.040 | Reactivity with monoclonal antibody Hs-1, OD values at 492 nm [3]: 0.290

VRMINIEA [43-VRMINIEA-50]
Reactivity with monoclonal antibody Hs-3, OD values at 492 nm [1]: 0.133 | Reactivity with monoclonal antibody Hs-2, OD values at 492 nm [2]: 0.012 | Reactivity with monoclonal antibody Hs-1, OD values at 492 nm [3]: 0.338

VVEYSSSV [271-VVEYSSSV-278]
Reactivity with monoclonal antibody Hs-3, OD values at 492 nm [1]: 0.090 | Reactivity with monoclonal antibody Hs-2, OD values at 492 nm [2]: 0.029 | Reactivity with monoclonal antibody Hs-1, OD values at 492 nm [3]: 0.659

YSAQVGASQ [155-YSAQVGASQ-163]
Reactivity with monoclonal antibody Hs-3, OD values at 492 nm [1]: 0.334 | Reactivity with monoclonal antibody Hs-2, OD values at 492 nm [2]: 0.492 | Reactivity with monoclonal antibody Hs-1, OD values at 492 nm [3]: 0.118

YSAQVGASQAAKF [155-YSAQVGASQAAKF-167]
Reactivity with monoclonal antibody Hs-3, OD values at 492 nm [1]: 0.377 | Reactivity with monoclonal antibody Hs-2, OD values at 492 nm [2]: 0.501 | Reactivity with monoclonal antibody Hs-1, OD values at 492 nm [3]: 0.106

YSSSVKLT [274-YSSSVKLT-281]
Reactivity with monoclonal antibody Hs-3, OD values at 492 nm [1]: 0.153 | Reactivity with monoclonal antibody Hs-2, OD values at 492 nm [2]: 0.054 | Reactivity with monoclonal antibody Hs-1, OD values at 492 nm [3]: 0.616
